Results from patent US20090264421A1 (priority 2007, published 2009).

Assays:
[1] = Tolerability of IP chaetocin in mice; format: in vivo, mouse; settings: 0.6 mg/kg and 0.25 mg/kg IP twice weekly for two weeks
Protocol: Subsequent in vivo work in mice utilized the following formulation: 0.06 mg/mL chaetocin in 20% PEG400 and 79.14% […] NaCl with 0.86% DMSO as a cosolvent. This system retains in vitro activity in cell culture models.

TrxR1 = target: T1, TrxR1 (Rattus norvegicus, UniProt O89049); settings: substrate of TrxR1, NADPH oxidation
T1 sequence (O89049 1-499): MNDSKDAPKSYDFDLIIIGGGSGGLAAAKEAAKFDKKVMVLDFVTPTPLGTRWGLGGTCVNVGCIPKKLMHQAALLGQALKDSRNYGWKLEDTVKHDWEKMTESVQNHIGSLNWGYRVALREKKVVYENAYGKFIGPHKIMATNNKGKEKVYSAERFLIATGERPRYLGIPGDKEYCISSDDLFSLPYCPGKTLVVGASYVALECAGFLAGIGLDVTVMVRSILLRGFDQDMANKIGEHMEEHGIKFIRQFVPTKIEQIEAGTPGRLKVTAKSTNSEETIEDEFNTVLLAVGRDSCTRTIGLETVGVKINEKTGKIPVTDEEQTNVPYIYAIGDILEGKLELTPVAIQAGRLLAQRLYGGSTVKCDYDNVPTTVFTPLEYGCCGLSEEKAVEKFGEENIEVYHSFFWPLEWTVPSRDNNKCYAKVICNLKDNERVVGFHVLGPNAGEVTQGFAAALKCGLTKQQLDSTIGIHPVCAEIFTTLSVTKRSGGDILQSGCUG
Description: Reagents: Chaetocin, β-Nicotinamide adenine dinucleotide 2′-phosphate reduced tetrasodium salt hydrate (NADPH), rat liver thioredoxin reductase, 5,5′-dithiobis(2-nitrobenzoic acid) (DTNB), oxidized glutathione (GSSG), bovine insulin, gliotoxin, thioredoxin reductase assay kit, anti-actin antibody and Celytic lysis reagent were purchased from Sigma (St. Louis, Mo.); yeast glutathione reductase and Complete Protease Inhibitor Tablets from Roche (Indianapolis, Ind.); BCA protein from Pierce (Rockford, Ill.); oxidized E. coli thioredoxin and dithiothreitol (DTT) from Promega (Madison, Wis.); verruculogen from Calbiochem (San Diego, Calif.); 4-acetamido-4′-maleimidylstilbene-2,2′-disulfonic acid (AMS) and Lipofectamine-Plus from Invitrogen (Carlsbad, Calif.); chaetomin from Alexis Biochemicals (San Diego, Calif.); and anti-thioredoxin antibody from Cell Signaling (Beverly, Mass.). HeLa cells were obtained from ATCC.
Steady-state kinetics: The 100 μL reaction consisted of 100 mM potassium phosphate (pH 7.0), 10 mM EDTA, 0.0004 U/μL thioredoxin reductase and chaetocin or other compounds as indicated. The assay was carried out in a 96-well quartz plate and the oxidation of NADPH was measured as a change in absorption at 340 nm. The initial velocities of the reaction were calculated from the decrease in the absorbance between 0 and 5 min (slope), and on a pathlength of 0.3 cm and NADPH ε=6.22 mmol^−1*cm^−1*L. The velocity versus concentration data were then analyzed using SigmaPlot's Enzyme Kinetics 1.3 program (Systat Software, San Jose, Calif.).

CN1C(=O)[C@@]23C[C@]4([C@]56C[C@@]78SS[C@@](CO)(C(=O)N7[C@H]5Nc5ccccc56)N(C)C8=O)c5ccccc5N[C@@H]4N2C(=O)[C@]1(CO)SS3 [chaetocin]
GI toxicity [1]: some GI toxicity was noted | tolerability [1]: tolerated | Km (TrxR1): 4.6 ± 0.6 µM
